Results published in US20050209295A1, “Methimazole derivatives and tautomeric cyclic thiones to inhibit cell adhesion” (priority 2004, published 2005).

What was measured:
Format in all cases: cell-based, human
[1] = tested on: VCAM-1 promoter; assay: TNF-alpha-induced VCAM-1 promoter activity, dual luciferase reporter assay in HAEC
Protocol: (§1) Cell culture and treatment of HAEC: Human aortic endothelial cells (HAEC; Cambrex Bio Science Walkersville, Inc., Walkersville, Md.) are cultured in M199 supplemented with 8% FBS, 100 μg/ml heparin, 10 ng/ml endothelial growth factor, 100 μg/ml hypothalamus extract, 2 mM L-glutamine, 1% non-essential amino acids, 100 units/ml penicillin and 100 μg/ml streptomycin. HAEC are subcultured on gelatin pre-coated: 96-well tissue culture plates (Corning Incorporated; Corning, N.Y.) for viability assays and ELISA; 100-mm tissue culture dishes (BD Falcon; Franklin Lakes, N.J.) for Northern blot analyses, Western blot analyses and EMSA; 35-mm tissue culture dishes (Corning) for adhesion assays and on 24-well tissue culture plates for luciferase promoter assays (BD Falcon). All experiments are performed with confluent HAEC monolayers. Unless noted otherwise, HAEC are treated with 25 ng/ml TNF-α, in the absence or presence of C-10 or 0.25% DMSO (carrier control for C-10), for 2-24 hrs. The concentration of DMSO is held constant at 0.25% (unless indicated otherwise) for all of the C-10 conditions.
Dual Luciferase Assay: Four human VCAM-1 promoter deletion constructs of different length, −1641/+12, −288/+12, −228/+12, −85/+12 bp are amplified by PCR from human genomic DNA. Each upstream primer contained a restriction endonuclease Mlu I site located at the 5′-end of the primer. The downstream primer corresponding to the +12 end contained a restriction endonuclease Xho I site at the 5′-end. The PCR products are digested by Mlu I and Xho I (New England Biolabs Inc., Beverly, Mass.) and ligated into a similarly digested pGL3 basic luciferase reporter vector (Promega, Madison, Wis.). Cells are transfected for 24 hrs. with 400 ng of indicated constructs, or pGL3 basic luciferase reporter vector as control, using GeneJuice transfection reagent (Novagen Inc., Madison, Wis.). All cells are also transfected with phRL-TK (Int−) vector (Promega), which contains wildtype Renilla luciferase (Rluc) as an “internal” transfection control. Luciferase assays are conducted with the Dual-Luciferase Reporter Assay System (Promega) on a Lumat LB 9507 tube luminometer. In every experiment, each condition is run in triplicate wells. Each experiment is replicated at least twice.

[2] = tested on: E-selectin; assay: TNF-α induced E-selectin mRNA in HAEC (Northern blot)
Protocol: as §1
(§2) HAEC are washed with PBS and total RNA extracted using a commercial kit (RNeasy Mini Kit; Qiagen Inc.; Valencia, Calif.). 12 μg of total RNA per lane is resolved on 1% denaturing agarose gels containing 0.66M formaldehyde. […]

[3] = tested on: ICAM-1; assay: TNF-α induced ICAM-1 mRNA in HAEC (Northern blot)
Protocol: as §1, §2

[4] = tested on: IRF-1; assay: EMSA of TNF-α induced IRF-1 binding activity to VCAM-1 promoter; settings: 0.5 mM and 1 mM; 2 hr. TNF-α; HAEC nuclear extract
Protocol: Nuclear Extracts and EMSA: Nuclear extracts are prepared from harvested HAEC using NE-PER® extraction reagents (Pierce Chemical Co.; Rockford, Ill.) in the presence of a protease inhibitor cocktail (PMSF, Leupeptin, Pepstatin-A). Oligonucleotides (Biosynthesis Inc.; Lewisville, Tex.) are annealed and precipitated double stranded oligonucleotides end labeled with γ-^32P-ATP using T4 polynucleotide kinase enzyme. Binding reactions (20 min., room temperature) included ^32P-labeled probe (activity 100,000 cpm), 3-6 μg HAEC nuclear extract, 1 μg poly(dI-dC), 1 mM DTT, 10% glycerol and 1× binding buffer. Binding buffer (10×) for NF-κB EMSA is 200 mM HEPES-KOH (pH7.9), 340 mM KCl, 50 mM MgCl2, 5 mM EDTA (pH 8.0), 1% Triton X-100. Binding buffer (10×) for IRF-1 EMSA is 100 mM Tris-HCL (pH 7.5), 500 mM NaCl, 50 mM MgCl2, 10 mM EDTA (pH 8.0). In competition studies, nuclear extracts are incubated with 100 fold molar excess of unlabeled double stranded oligonucleotide. In supershift studies, nuclear extracts are incubated with 2 μg of appropriate antibodies. After the incubations, reaction mixtures are electrophoresed (160V, room temperature) on 5% non-denaturing polyacrylamide gels containing 5% glycerol in 1×TBE (50 mM Tris, 50 mM boric acid, and 1 mM EDTA). Gels are dried and autoradiographed. Each experiment is replicated at least twice. […]

Cn1c(-c2ccccc2)cnc1S [5-Phenylmethimazole]
effect on TNF-α induced promoter activities of the four VCAM-1 constructs ([1]; 0.3 mM, 10 ng/ml TNF-α 6 hrs., −1641/+12, −288/+12, −228/+12, −85/+12 bp constructs): inhibits | % INHIBITION of TNF-alpha-induced VCAM-1 promoter activity ([1]; 10 :M, hVCAM-1(−228 to +12)-luciferase construct, mean ± SD): 31 ± 5% | % INHIBITION of TNF-alpha-induced VCAM-1 promoter activity ([1]; 100 :M, hVCAM-1(−228 to +12)-luciferase construct, mean ± SD): 61 ± 3% | inhibition at 5000 µM ([1]; Homo sapiens, 5.0 mM, hVCAM-1(−228 to +12)-luciferase construct, mean ± SD): 72 ± 3% | effect on TNF-α induced E-selectin mRNA expression ([2]; 2 hr. TNF-α): marginal effect | effect on TNF-α induced E-selectin mRNA ([2]; 24 hr. TNF-α): reduced, in a dose dependent manner | effect on TNF-α induced ICAM-1 mRNA expression ([3]; 2 hr. TNF-α): no effect | effect on TNF-α induced ICAM-1 mRNA expression ([3]; 24 hr. TNF-α): little to no effect | effect on formation of TNF-α induced IRF-1 complex (EMSA) [4]: inhibits
